Experimental findings from article PMC11268423 (Science Advances, 2024) are described below.

What all share (assay): microbe, parasite or virus in culture
Common to all, as to assay type: cell-based

The test system of experiment [1] is SARS-CoV-2 WA-1 (P1). To be noted: Severe acute respiratory syndrome coronavirus 2, A549-ACE2.
The subject of experiment [2] is SARS-CoV-2 WA-1 (P1). To be noted: Severe acute respiratory syndrome coronavirus 2.
A further experiment concerns SARS-CoV-2 WA-1 strain. To be noted: Severe acute respiratory syndrome coronavirus 2.

As usually defined, the EC50 is the concentration giving half of the maximal effect. For `CCC(CC)COC(=O)[C@H](C)N[P@](=O)(OC[C@H]1O[C@@](C#N)(c2ccc3c(N)ncnn23)[C@H](O)[C@@H]1O)Oc1ccccc1` [Remdesivir], the EC50 turned out to be 75 nM in the experiment with SARS-CoV-2 WA-1 (P1) [1] and 29.1 nM in the experiment on SARS-CoV-2 WA-1 (P1) [2].
In general, EC90 refers to the concentration needed for an effect of 90%. In the case of `CC(C)(C)[C@H](NC(=O)C(F)(F)F)C(=O)N1C[C@H]2[C@@H]([C@H]1C(=O)N[C@H](C#N)C[C@@H]1CCNC1=O)C2(C)C` [Nirmatrelvir], the results for the EC50 with SARS-CoV-2 WA-1 (P1) [1], in the experiment with SARS-CoV-2 WA-1 strain and with SARS-CoV-2 WA-1 (P1) [2] were 54 nM, 150 nM and 34.8 nM, respectively. The same compound gave an EC90 in the experiment on SARS-CoV-2 WA-1 strain of 370 nM.
